Experimental data as given in patent US11673894B2, “Imidazopyrimidines and triazolopyrimidines as A2A / A2B inhibitors” (Incyte Corporation, priority 2018, dated 2023).

Tests used:
[1] = molecular target: Adenosine A2A receptor (Homo sapiens (Human), UniProt P29274); assay: A2A Tag-lite HTRF Assay; conditions: Tag-lite Adenosine A2A labeled cells; A2A Receptor Red antagonist fluorescent ligand 12.5 nM; one-site competitive binding model; read-out: A2A_Ki
Text: The final concentration of DMSO was 1%.

[2] = molecular target: human adenosine A2B receptor (Homo sapiens (Human), UniProt P29275); assay: Adenosine A2B Receptor Cyclic AMP GS Assay; type: cell-based; conditions: HEK-293 cells expressing human A2B receptor; agonist NECA at 12 nM; cAMP accumulation (FRET); read-out: A2B_cAMP_EC50
Method: Stably transfected HEK-293 cells expressing the human adenosine A2B receptor (Perkin Elmer) were maintained in MEM culture medium with 10% FBS and 100 μg/ml Geneticin (Life Technologies). 18 to 24 hours prior to assay, geneticin was removed from culture. The cisbio cAMP-GS Dynamic kit utilizing the FRET (Fluorescence Resonance Energy Transfer) technology was used to measure cAMP accumulation in the cells. Compounds of the present disclosure at an appropriate concentration were mixed with 10000 cells/well in white 96 well half area plates (Perkin Elmer) for 30 min at RT gently shaking. Agonist, NECA (R&D Technologies) at 12 nM was added to each well for 60 min at RT gently shaking. Detection reagents, d2-labeled cAMP (acceptor) and anti-cAMP cryptate (donor) were added to each well for 60 min at RT gently shaking. Plates were read on Pherastar (BMG Labtech), fluorescence ratio 665/620 was calculated and EC50 determination was performed by fitting the curve of percent of control versus the log of the compound concentration using GraphPad Prism.

Chain of human adenosine A2B receptor (P29275 whole entry): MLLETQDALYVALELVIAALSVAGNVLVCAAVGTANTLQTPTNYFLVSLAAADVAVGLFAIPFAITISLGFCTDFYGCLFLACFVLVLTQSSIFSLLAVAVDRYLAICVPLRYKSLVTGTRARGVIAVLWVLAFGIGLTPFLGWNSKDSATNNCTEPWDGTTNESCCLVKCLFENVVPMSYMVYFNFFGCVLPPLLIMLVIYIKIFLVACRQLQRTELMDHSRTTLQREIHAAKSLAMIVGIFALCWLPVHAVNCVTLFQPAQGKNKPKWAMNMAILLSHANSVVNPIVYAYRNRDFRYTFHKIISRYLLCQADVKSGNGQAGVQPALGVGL
Chain of Adenosine A2A receptor (P29274 whole entry): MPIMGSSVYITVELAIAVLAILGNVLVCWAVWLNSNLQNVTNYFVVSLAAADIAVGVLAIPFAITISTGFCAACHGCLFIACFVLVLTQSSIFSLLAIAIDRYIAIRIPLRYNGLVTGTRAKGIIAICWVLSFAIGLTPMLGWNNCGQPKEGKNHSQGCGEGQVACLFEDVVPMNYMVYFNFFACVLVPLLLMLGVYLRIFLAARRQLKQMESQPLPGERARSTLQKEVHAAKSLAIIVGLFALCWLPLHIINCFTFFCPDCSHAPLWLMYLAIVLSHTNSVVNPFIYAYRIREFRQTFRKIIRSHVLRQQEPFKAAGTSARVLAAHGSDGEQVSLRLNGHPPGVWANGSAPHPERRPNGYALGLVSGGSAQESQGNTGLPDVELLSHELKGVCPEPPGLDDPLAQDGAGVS

Compound | Ki [1] [nM] | EC50 [2] [nM]
Nc1nc(-c2ccccc2F)c(-c2ccncc2)c2nccn12 [Example 7, 7-(2-Fluorophenyl)-8-(pyridin-4-yl)imidazo[1,2-c]pyrimidin-5-amine] | 10 to 100 | 10 to 100
Cc1cccc(COc2nc3c(-c4ccncn4)c(-c4cccc(C#N)c4)nc(N)n3n2)n1 [Example 95, 3-(5-Amino-2-((6-methylpyridin-2-yl)methoxy)-8-(pyrimidin-4-yl)-[1,2,4]triazolo[1,5-c]pyrimidin-7-yl)benzonitrile] | < 10 | < 10
CCNC(=O)c1cn2c(N)nc(-c3cccc(C#N)c3)c(-c3ccncc3C#N)c2n1 [Example 31, 5-Amino-7-(3-cyanophenyl)-N-ethyl-8-(3-cyanopyridin-4-yl)imidazo[1,2-c]pyrimidine-2-carboxamide] | < 10 | 10 to 100
CCOc1ccc(-c2cnc3c(-c4ccnc(C)c4)c(-c4ccccc4)nc(N)n23)cc1 [Example 13, 3-(4-Ethoxyphenyl)-8-(2-methylpyridin-4-yl)-7-phenylimidazo[1,2-c]pyrimidin-5-amine] | 10 to 100 | 
N#Cc1cccc(-c2nc(N)n3nc(Cc4ccccn4)nc3c2-c2cnn3ncccc23)c1 [Example 60, 3-(5-Amino-8-(pyrazolo[1,5-b]pyridazin-3-yl)-2-(pyridin-2-ylmethyl)-[1,2,4]triazolo[1,5-c]pyrimidin-7-yl)benzonitrile] | < 10 | 10 to 100
N#Cc1cccc(-c2nc(N)n3nc(NC(C#N)c4ccccc4)nc3c2-c2ccncn2)c1 (stereo not drawn) [Example 69, 3-(5-Amino-2-((cyano(phenyl)methyl)amino)-8-(pyrimidin-4-yl)-[1,2,4]triazolo[1,5-c]pyrimidin-7-yl)benzonitrile] | < 10 | 10 to 100
CCNC(=O)c1nc2c(-c3ccnc(OC)c3)c(-c3cccc(C#N)c3)nc(N)n2c1-c1ccccn1 [Example 19, 5-Amino-7-(3-cyanophenyl)-N-ethyl-8-(2-methoxypyridin-4-yl)-3-(pyridin-2-yl)imidazo[1,2-c]pyrimidine-2-carboxamide] | < 10 | 100 to 1000
Cc1cccnc1CNc1nc2c(-c3ccncn3)c(-c3cccc(C#N)c3)nc(N)n2n1 [Example 97, 3-(5-Amino-2-(((3-methylpyridin-2-yl)methyl)amino)-8-(pyrimidin-4-yl)-[1,2,4]triazolo[1,5-c]pyrimidin-7-yl)benzonitrile] | < 10 | < 10
CCNC(=O)c1cn2c(N)nc(-c3cccc(C#N)c3)c(-c3cnn4ccccc34)c2n1 [Example 33, 5-Amino-7-(3-cyanophenyl)-N-ethyl-8-(pyrazolo[1,5-a]pyridin-3-yl)imidazo[1,2-c]pyrimidine-2-carboxamide] | < 10 | 100 to 1000
CCn1nccc1-c1c(-c2cccc(C#N)c2)nc(N)n2nc(Cc3ncccc3F)nc12 [Example 52, 3-(5-Amino-8-(1-ethyl-1H-pyrazol-5-yl)-2-((3-fluoropyridin-2-yl)methyl)-[1,2,4]triazolo[1,5-c]pyrimidin-7-yl)benzonitrile] | < 10 | < 10
CCNC(=O)c1cn2c(N)nc(-c3cccc(C#N)c3)c(-c3ccc(C(N)=O)cc3)c2n1 [Example 32, 5-Amino-8-(4-carbamoylphenyl)-7-(3-cyanophenyl)-N-ethylimidazo[1,2-c]pyrimidine-2-carboxamide] | < 10 | 100 to 1000
N#Cc1cccc(-c2nc(N)n3nc(C(O)c4c(F)cccc4F)nc3c2-c2ccncn2)c1 (single isomer, unassigned) [Example 76, 3-(5-Amino-2-((2,6-difluorophenyl)(hydroxy)methyl)-8-(pyrimidin-4-yl)-[1,2,4]triazolo[1,5-c]pyrimidin-7-yl)benzonitrile] |  | < 10
CCNC(=O)c1cn2c(NCC)nc(-c3ccccc3)c(-c3cc(C)nc(C)c3)c2n1 [Example 22, 8-(2,6-Dimethylpyridin-4-yl)-N-ethyl-5-(ethylamino)-7-phenylimidazo[1,2-c]pyrimidine-2-carboxamide] | 10 to 100 | > 1000
Cc1cc(-c2c(-c3cccc(C#N)c3)nc(N)n3ccnc23)cc(C)n1 [Example 1, 3-(5-Amino-8-(2,6-dimethylpyridin-4-yl)imidazo[1,2-c]pyrimidin-7-yl)benzonitrile] | < 10 | 100 to 1000
Cn1ccc(Cc2nc3c(-c4cnco4)c(-c4cccc(C#N)c4)nc(N)n3n2)n1 [Example 93, 3-(5-Amino-2-((1-methyl-1H-pyrazol-3-yl)methyl)-8-(oxazol-5-yl)-[1,2,4]triazolo[1,5-c]pyrimidin-7-yl)benzonitrile] | < 10 | < 10
N#Cc1cccc(-c2nc(N)n3nc(C(O)c4c(F)cccc4F)nc3c2-c2ccncn2)c1 (single isomer, unassigned) [Example 77, 3-(5-Amino-2-((2,6-difluorophenyl)(hydroxy)methyl)-8-(pyrimidin-4-yl)-[1,2,4]triazolo[1,5-c]pyrimidin-7-yl)benzonitrile] |  | 10 to 100

Compound | Ki [1] [nM] | EC50 [2] [nM]
CCn1nccc1-c1c(-c2cccc(C#N)c2)nc(N)n2nc(C3(c4ccccc4)CC3)nc12 [Example 67, 3-(5-Amino-8-(1-ethyl-1H-pyrazol-5-yl)-2-(1-phenylcyclopropyl)-[1,2,4]triazolo[1,5-c]pyrimidin-7-yl)benzonitrile] | < 10 | 100 to 1000
N#Cc1cccc(-c2nc(N)n3nc(Cc4c(F)cccc4CN4C(=O)CNC4=O)nc3c2-c2ccncn2)c1 [Example 75, 3-(5-Amino-2-(2-((2,5-dioxoimidazolidin-1-yl)methyl)-6-fluorobenzyl)-8-(pyrimidin-4-yl)-[1,2,4]triazolo[1,5-c]pyrimidin-7-yl)benzonitrile] | < 10 | < 10
CN(Cc1cccc(F)c1Cc1nc2c(-c3ccncn3)c(-c3cccc(C#N)c3)nc(N)n2n1)S(C)(=O)=O [Example 74, N-(2-((5-Amino-7-(3-cyanophenyl)-8-(pyrimidin-4-yl)-[1,2,4]triazolo[1,5-c]pyrimidin-2-yl)methyl)-3-fluorobenzyl)-N-methylmethanesulfonamide] | < 10 | < 10
Cc1cccnc1COc1nc2c(-c3ccncn3)c(-c3cccc(C#N)c3)nc(N)n2n1 [Example 94, 3-(5-Amino-2-((3-methylpyridin-2-yl)methoxy)-8-(pyrimidin-4-yl)-[1,2,4]triazolo[1,5-c]pyrimidin-7-yl)benzonitrile] | < 10 | < 10
N#Cc1cccc(-c2nc(N)n3nc(C(O)c4ccccc4)nc3c2-c2ncncc2F)c1 (stereo not drawn) [Example 45, 3-(5-Amino-8-(5-fluoropyrimidin-4-yl)-2-(hydroxy(phenyl)methyl)-[1,2,4]triazolo[1,5-c]pyrimidin-7-yl)benzonitrile] | < 10 | < 10
CCNC(=O)c1cn2c(N)nc(-c3cccc(C#N)c3)c(-c3ccncc3OC)c2n1 [Example 30, 5-Amino-7-(3-cyanophenyl)-N-ethyl-8-(3-methoxypyridin-4-yl)imidazo[1,2-c]pyrimidine-2-carboxamide] | < 10 | < 10
Cc1cccnc1Cc1nc2c(-c3ocnc3C)c(-c3cccc(C#N)c3)nc(N)n2n1 [Example 84, 3-(5-Amino-8-(4-methyloxazol-5-yl)-2-((3-methylpyridin-2-yl)methyl)-[1,2,4]triazolo[1,5-c]pyrimidin-7-yl)benzonitrile] | < 10 | < 10
Cc1occc1-c1nc(N)n2ccnc2c1-c1ccncc1 [Example 6, 7-(2-Methylfuran-3-yl)-8-(pyridin-4-yl)imidazo[1,2-c]pyrimidin-5-amine] | 10 to 100 | 
CCNC(=O)c1cn2c(N)nc(-c3ccccc3)c(-c3cc(C)[n+]([O-])c(C)c3)c2n1 [Example 23, 4-(5-Amino-2-(ethylcarbamoyl)-7-phenylimidazo[1,2-c]pyrimidin-8-yl)-2,6-dimethylpyridine 1-oxide] | < 10 | 
Cc1cc(-c2c(-c3ccccc3)nc(N)n3c(CN4CCOCC4)cnc23)cc(C)n1 [Example 3, 8-(2,6-Dimethylpyridin-4-yl)-3-(morpholinomethyl)-7-phenylimidazo[1,2-c]pyrimidin-5-amine] | 10 to 100 | 
Cc1cc(-c2c(-c3cnc4c(c3)CCN4)nc(N)n3ccnc23)cc(C)n1 [Example 2, 7-(2,3-Dihydro-1H-pyrrolo[2,3-b]pyridin-5-yl)-8-(2,6-dimethylpyridin-4-yl)imidazo[1,2-c]pyrimidin-5-amine] | 100 to 1000 | 
Cc1cc(-c2c(-c3cnn(C)c3)nc(N)n3ccnc23)ccn1 [Example 9, 7-(1-Methyl-1H-pyrazol-4-yl)-8-(2-methylpyridin-4-yl)imidazo[1,2-c]pyrimidin-5-amine] | 10 to 100 | 
CCOC(=O)c1cn2c(N)nc(-c3ccccc3)c(-c3ccnc(C)c3)c2n1 [Example 11, Ethyl 5-amino-8-(2-methylpyridin-4-yl)-7-phenylimidazo[1,2-c]pyrimidine-2-carboxylate] | 10 to 100 | 
COC(=O)c1cc(-c2cn3c(N)nc(-c4ccccc4)c(-c4ccncc4)c3n2)on1 [Example 12, Methyl 5-(5-amino-7-phenyl-8-(pyridin-4-yl)imidazo[1,2-c]pyrimidin-2-yl)isoxazole-3-carboxylate] | 10 to 100 | 
Nc1nc(-c2cc3ccccc3o2)c(-c2ccncc2)c2nccn12 [Example 8, 7-(Benzofuran-2-yl)-8-(pyridin-4-yl)imidazo[1,2-c]pyrimidin-5-amine] | 100 to 1000 | 
